Reference: patent US20090203577A1 (EXELIXIS, INC., priority 2005, published 2009)
In brackets after ≈: the same amount, converted by molar mass. Read-outs that look alike come from different tables or passages of the source.

Tests used:
[1] = biological target: T1, human farnesoid X receptor (Homo sapiens, UniProt Q96RI1); experiment: FXR in vitro assays (farnesoid X receptor/ECREx7 co-transfection assay, TR-FRET assay), Table I; format: cell-based; details: for Emax: read-out: % Efficacy
T1 construct: CMX-farnesoid X receptor (full length human farnesoid X receptor); expressed in transfected cells; host or cells: CV-1 African Green Monkey Kidney cells
T1 sequence (Q96RI1 1-472 isoform Q96RI1-2): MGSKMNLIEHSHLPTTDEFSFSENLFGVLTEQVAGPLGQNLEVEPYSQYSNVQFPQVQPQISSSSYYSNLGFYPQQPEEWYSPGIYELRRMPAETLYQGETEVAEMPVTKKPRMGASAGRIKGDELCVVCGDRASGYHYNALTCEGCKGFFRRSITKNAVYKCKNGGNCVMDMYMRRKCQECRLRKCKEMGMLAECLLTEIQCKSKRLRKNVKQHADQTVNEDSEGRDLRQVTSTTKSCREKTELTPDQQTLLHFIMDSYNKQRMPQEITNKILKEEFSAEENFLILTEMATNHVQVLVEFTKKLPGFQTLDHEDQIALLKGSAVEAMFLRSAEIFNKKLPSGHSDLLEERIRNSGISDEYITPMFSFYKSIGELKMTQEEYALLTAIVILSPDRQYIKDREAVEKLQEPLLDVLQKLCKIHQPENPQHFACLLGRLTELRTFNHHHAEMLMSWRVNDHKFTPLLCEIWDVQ
T1 sequence (P19793 1-462 partner): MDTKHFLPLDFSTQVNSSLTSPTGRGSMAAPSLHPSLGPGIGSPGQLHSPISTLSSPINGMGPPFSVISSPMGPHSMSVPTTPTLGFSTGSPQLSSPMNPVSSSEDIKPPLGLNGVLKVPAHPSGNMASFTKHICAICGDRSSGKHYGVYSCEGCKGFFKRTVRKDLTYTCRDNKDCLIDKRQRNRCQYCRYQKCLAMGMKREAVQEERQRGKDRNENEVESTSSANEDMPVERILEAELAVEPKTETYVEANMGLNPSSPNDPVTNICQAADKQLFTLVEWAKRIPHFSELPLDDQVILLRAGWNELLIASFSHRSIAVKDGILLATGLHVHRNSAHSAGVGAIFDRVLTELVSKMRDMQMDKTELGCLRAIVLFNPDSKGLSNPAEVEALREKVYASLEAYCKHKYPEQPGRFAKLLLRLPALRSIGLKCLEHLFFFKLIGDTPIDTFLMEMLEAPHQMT
Summary of the method: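 CV-1 monkey kidney cells transfected for an FXR/ECREx7 luciferase co-transfection reporter; luciferase read 18-20 h later in lysates. 8-point dose-response at ½-log spacing, 4 wells per point; EC50/IC50 from four-parameter Hill fit, averaged over at least 3 independent experiments.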

physchem = details: pH 7.4, aqueous buffer, kinetic from dmso stock
Experimental: The kinetic solubility of test compounds in buffer was evaluated using a 96 well filtration plate format. A 500 μM assay solution in PBS, pH7.4 (or other assay buffer, as needed) was generated form a DMSO stock solution (up to 10 mM). Samples were transferred to a 96 Millipore MultiScreen HTS 96-well Filter plate (Cat# MSSLBPC10) mixed by shaking for 1.5 hours and processed by filtration prior to quantitation by HPLC-UV. Amiodarone and testosterone were used as reference controls.

[2] = agonist activity, one or more of the in vitro assays, read-out: EC50

Compound: CC(C)OC(=O)C1=CN(C(=O)N2CCCC(CN3CCOCC3)C2)CC(C)(C)c2c1[nH]c1ccccc21 (stereo not drawn) [Example 53, 1-methylethyl 1,1-dimethyl-3{[3-(morpholin-4-ylmethyl)piperidin-1-yl]carbonyl}-1,2,3,6-tetrahydroazepino [4,5-b]indole-5-carboxylate]
- EC50 [1, 2]: 100 to 1000 nM
- Emax [1]: > 100%
- solubility kinetic at 1.5 h (physchem): > 10 µM

Compound: CC(C)OC(=O)C1=CN(C(=O)N[C@H]2CCCNC2)CC(C)(C)c2c1[nH]c1ccccc21 [Example 54, 1-mcthylethyl 1,1-dimethyl-3-{[(3S)-piperidin-3-ylamino]carbonyl}-1,2,3,6-tetrahydroazepino[4,5-b]indole-5-carboxylate]
- EC50 [1, 2]: 1000 to 10000 nM
- Emax [1]: 40 to 60%
- solubility kinetic at 1.5 h (physchem): > 10 µM

Compound: CC(C)OC(=O)C1=CN(C(=O)NC2CCCNC2)CC(C)(C)c2c1[nH]c1ccccc21 (stereo not drawn) [Example 56, 1-methylethyl 1,1-dimethyl-3-[(piperidin-3-ylamino)carbonyl]-1,2,3,6-tetrahydro azepino[4,5-b]indole-5-carboxylate]
- EC50 [1, 2]: 1000 to 10000 nM
- Emax [1]: < 40%
- solubility kinetic at 1.5 h (physchem): > 10 µM

Compound: CC(C)OC(=O)C1=CN(C(=O)N2CCC[C@H](CN3CCOCC3)C2)CC(C)(C)c2c1[nH]c1ccccc21 [Example 57, 1-methylethyl 1,1-dimethyl-3-{[(3R)-3-(morpholin-4-ylmethyl)piperidin-1-yl]carbonyl}-1,2,3,6-tetrahydroazepino [4,5-b]indole-5-carboxylate]
- EC50 [1, 2]: 1000 to 10000 nM
- Emax [1]: > 100%
- solubility kinetic at 1.5 h (physchem): > 10 µM

Compound: CC(C)OC(=O)C1=CN(C(=O)N2CCC[C@H](CN3CCCCC3)C2)CC(C)(C)c2c1[nH]c1ccccc21 [Example 58]
- EC50 [1, 2]: 1000 to 10000 nM
- Emax [1]: 80 to 100%
- solubility kinetic at 1.5 h (physchem): > 10 µM

Compound: CC(C)OC(=O)C1=CN(C(=O)N2CCC[C@@H](N3CCCCC3)C2)CC(C)(C)c2c1[nH]c1ccccc21 [Example 60, 1-methylethyl 3-[(3′R)-1,3′-bipiperidin-1′-ylcarbonyl]-1,1-dimethyl-1,2,3,6-tetrahydroazepino[4,5-b]indole-5-carboxylate]
- EC50 [1, 2]: 1000 to 10000 nM
- Emax [1]: 60 to 80%
- solubility kinetic at 1.5 h (physchem): > 10 µM

Compound: CC(C)OC(=O)C1=CN(C(=O)c2ccccc2C(F)(F)F)CC(C)(C)c2c1[nH]c1ccccc21 [Example 64, 1-methylethyl 1,1-dimethyl-3-{[2-(trifluoromethyl)phenyl]-carbonyl}-1,2,3,6-tetrahydroazepino[4,5-b]indole-5-carboxylate]
- EC50 [1, 2]: 10 to 100 nM
- Emax [1]: > 100%
- solubility kinetic at 1.5 h (physchem): 1 to 10 µM (≈ 0.47 to 4.7 µg/mL)

Compound: CC(C)OC(=O)C1=CN(C(=O)c2ccccc2Br)CC(C)(C)c2c1[nH]c1ccccc21 [Example 67, 1-methylethyl 3-[(2-bromophenyl)carbonyl]-1,1-dimethyl-1,2,3,6-tetrahydroazepino[4,5-b]indole-5-carboxylate]
- EC50 [1, 2]: 10 to 100 nM
- Emax [1]: > 100%
- solubility kinetic at 1.5 h (physchem): 1 to 10 µM (≈ 0.481 to 4.81 µg/mL)

Compound: CC(C)OC(=O)C1=CN(C(=O)c2ccccc2OC(F)(F)F)CC(C)(C)c2c1[nH]c1ccccc21 [Example 70, 1-methylethyl 1,1-dimethyl-3-({2-[(trifluoromethyl)oxy]phenyl}carbonyl)-1,2,3,6-tetrahydroazepino[4,5-b]indole-5-carboxylate]
- EC50 [1, 2]: 100 to 1000 nM
- Emax [1]: > 100%
- solubility kinetic at 1.5 h (physchem): 1 to 10 µM (≈ 0.486 to 4.86 µg/mL)

Compound: CC(C)OC(=O)C1=CN(C(=O)c2cccc(F)c2)CC(C)(C)c2c1[nH]c1ccccc21 [Example 72, 1-methylethyl 3-[(3-fluorophenyl)carbonyl]-1,1-dimethyl-1,2,3,6-tetrahydroazepino[4,5-b]indole-5-carboxylate]
- EC50 [1, 2]: 1 to 10 nM
- Emax [1]: > 100%
- solubility kinetic at 1.5 h (physchem): 1 to 10 µM (≈ 0.42 to 4.2 µg/mL)

Compound: CC(C)OC(=O)C1=CN(C(=O)c2ccc3c(c2)OCO3)CC(C)(C)c2c1[nH]c1ccccc21 [Example 80, 1-methylethyl 3-(1,3-benzodioxol-5-ylcarbonyl)-1,1-dimethyl-1,2,3,6-tetrahydroazepino[4,5-b]indole-5-carboxylate]
- EC50 [1, 2]: 10 to 100 nM
- Emax [1]: > 100%
- solubility kinetic at 1.5 h (physchem): 1 to 10 µM (≈ 0.447 to 4.47 µg/mL)

Compound: CC(C)OC(=O)C1=CN(C(=O)c2cccc(Cl)c2)CC(C)(C)c2c1[nH]c1ccccc21 [Example 81, 1-methylethyl 3-[(3-chlorophenyl)carbonyl]-1,1-dimethyl-1,2,3,6-tetrahydroazepino[4,5-b]indole-5-carboxylate]
- EC50 [1, 2]: 10 to 100 nM
- Emax [1]: > 100%
- solubility kinetic at 1.5 h (physchem): 1 to 10 µM (≈ 0.437 to 4.37 µg/mL)

Compound: CC(C)OC(=O)C1=CN(C(=O)c2ccc(Cl)cc2)CC(C)(C)c2c1[nH]c1ccccc21 [Example 82, 1-methylethyl 3[(4-chlorophenyl)carbonyl]-1,1-dimethyl-1,2,3,6-tetrahydroazepino[4,5-b]indole-5-carboxylate]
- EC50 [1, 2]: 10 to 100 nM
- Emax [1]: > 100%
- solubility kinetic at 1.5 h (physchem): 1 to 10 µM (≈ 0.437 to 4.37 µg/mL)

Compound: CC(C)OC(=O)C1=CN(C(=O)c2ccc(F)c(C(F)(F)F)c2)CC(C)(C)c2c1[nH]c1ccccc21 [Example 83, 1-methylethyl 3-{[4-fluoro-3-(trifluoromethyl)phenyl]car-bonyl}-1,1-dimethyl-1,2,3,6-tetrahydroazepino[4,5-b]indole-5-carboxylate]
- EC50 [1, 2]: 10 to 100 nM
- Emax [1]: > 100%
- solubility kinetic at 1.5 h (physchem): 1 to 10 µM (≈ 0.488 to 4.88 µg/mL)

Compound: Cc1cccc(C(=O)N2C=C(C(=O)OC(C)C)c3[nH]c4ccccc4c3C(C)(C)C2)c1 [Example 86, 1-methylethyl 1,1-dimethyl-3-[(3-methylphenyl)carbonyl]-1,2,3,6-tetrahydroazepino[4,5-b]indole-5-carboxylate]
- EC50 [1, 2]: 1 to 10 nM
- Emax [1]: > 100%
- solubility kinetic at 1.5 h (physchem): 1 to 10 µM (≈ 0.417 to 4.17 µg/mL)

Compound: CC(C)NC(=O)C1CN(C(=O)c2ccc(F)c(F)c2)CC(C)(C)c2c1[nH]c1ccccc21 (stereo not drawn) [Example 90, 3-[(3,4-difluorophenyl)carbonyl]-1,1-dimethyl-N-(1-methylethyl)-1,2,3,4,5,6-hexahydroazepino[4,5-b]indole-5-carboxamide]
- EC50 [1, 2]: 1000 to 10000 nM
- Emax [1]: > 100%
- solubility kinetic at 1.5 h (physchem): > 10 µM

Compound: CC(C)OC(=O)C1=CN(C(=O)c2ccc(F)c(F)c2)CC(C)(C)c2c1[nH]c1cc(OC(=O)NCCN(C)C)ccc21 [Example 93, 1-methylethyl 3-[(3,4-difluorophenyl)carbonyl]-8-[({[2-(dimethylamino)ethyl]amino}carbonyl)oxy]-1,1-dimethyl-1,2,3,6-tetrahydroazepino[4,5-b]indole-5-carboxylate]
- EC50 [1]: 10 to 100 nM
- Emax [1]: > 100%
- solubility kinetic at 1.5 h (physchem): > 10 µM

Compound: CC(C)OC(=O)C1=CN(C(=O)c2ccc(F)c(F)c2)CC(C)(C)c2c1[nH]c1cc(OC(=O)OC(C)(C)C)ccc21 [Example 96, 1-methylethyl 3-[(3,4-difluorophenyl)carbonyl]-8-({[(1,1-dimethylethyl)oxy]carbonyl}oxy)-1,1-dimethyl-1,2,3,6-tetrahydroazepino[4,5-b]indole-5-carboxylate]
- EC50 [1, 2]: 10 to 100 nM
- Emax [1]: > 100%
- solubility kinetic at 1.5 h (physchem): 1 to 10 µM (≈ 0.555 to 5.55 µg/mL)

Compound: CC(C)OC(=O)C1=CN(C(=O)c2cccc(OCc3ccccc3)c2)CC(C)(C)c2c1[nH]c1ccccc21 [Example 127, 1-methylethyl 1,1-dimethyl-3-({3-[(phenylmethyl)oxy]phenyl}carbonyl)-1,2,3,6-tetrahydroazepino[4,5-b]indole-5-carboxylate]
- EC50 [1, 2]: 10 to 100 nM
- Emax [1]: > 100%
- solubility kinetic at 1.5 h (physchem): 1 to 10 µM (≈ 0.509 to 5.09 µg/mL)

Compound: Cc1ccc(C(=O)N2C=C(C(=O)OC(C)C)c3[nH]c4ccccc4c3C(C)(C)C2)cc1F [Example 130, 1-methylethyl 3-[(3-fluoro-4-methylphenyl)carbonyl]-1,1-dimethyl-1,2,3,6-tetrahydroazepino[4,5-b]indole-5-carboxylate]
- EC50 [1, 2]: 10 to 100 nM
- Emax [1]: > 100%
- solubility kinetic at 1.5 h (physchem): 1 to 10 µM (≈ 0.435 to 4.35 µg/mL)

Compound: CC(C)OC(=O)C1=CN(C(=O)c2ccc(C(F)(F)F)cc2F)CC(C)(C)c2c1[nH]c1ccccc21 [Example 131, 1-methylethyl 3-{[2-fluoro-4-(trifluoromethyl)phenyl]car-bonyl}-1,1-dimethyl-1,2,3,6-tetrahydroazepino[4,5-b]indole-5-carboxylate]
- EC50 [1, 2]: 100 to 1000 nM
- Emax [1]: > 100%
- solubility kinetic at 1.5 h (physchem): > 10 µM
